Here are results for 16 molecules from patent US20220348595A1, “COMPOUNDS AND METHODS FOR THE TARGETED DEGRADATION OF ESTROGEN RECEPTORS” (Endotarget Inc., priority 2021, published 2022).

What all share (assay type): cell-based
Experiment [1] concerns the target T1, ER (Homo sapiens, UniProt P03372).
T1 construct: endogenous in cells; host or cells: T47d-kb-Luc (T47D stably transfected with a luciferase reporter gene only)
T1 sequence (P03372 1-595): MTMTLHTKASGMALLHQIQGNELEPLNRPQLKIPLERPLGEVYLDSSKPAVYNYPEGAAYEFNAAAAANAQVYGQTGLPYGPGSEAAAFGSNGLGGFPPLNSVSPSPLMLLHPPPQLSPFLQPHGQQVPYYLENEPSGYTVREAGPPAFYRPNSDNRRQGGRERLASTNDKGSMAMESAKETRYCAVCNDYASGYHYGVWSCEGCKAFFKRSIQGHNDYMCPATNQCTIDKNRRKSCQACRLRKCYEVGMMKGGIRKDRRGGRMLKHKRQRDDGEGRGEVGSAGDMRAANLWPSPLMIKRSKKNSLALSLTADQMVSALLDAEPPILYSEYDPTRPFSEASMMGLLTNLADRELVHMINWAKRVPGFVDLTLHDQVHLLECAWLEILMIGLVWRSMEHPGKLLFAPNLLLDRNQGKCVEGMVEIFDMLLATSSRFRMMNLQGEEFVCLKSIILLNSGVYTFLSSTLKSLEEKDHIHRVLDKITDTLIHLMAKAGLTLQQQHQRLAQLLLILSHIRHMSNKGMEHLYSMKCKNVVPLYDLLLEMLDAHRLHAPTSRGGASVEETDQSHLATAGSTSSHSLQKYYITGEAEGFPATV
The experiment can be described thus: ER antagonism (T47D ERE luciferase), T47d-kb-Luc cells. As to conditions: read-out: IC50 (ER antagonistm). In a few lines: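 Five sample concentrations, each in quadruplicate and repeated in at least three experiments, were tested for blocking of estradiol activity. Values were expressed relative to the estradiol control. The cell system was the T47d-kb-Luc stable breast cancer line.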

The target in experiment [2] is T2, ERα (Homo sapiens, UniProt P03372).
T2 construct: endogenous in cells; host or cells: MCF-7
T2 sequence (P03372 1-595): T1 sequence (P03372 1-595)
Briefly: ER degradation in MCF-7 cells (Western blot). As to conditions: for DC50: ER degradation, 24 hours; for Dmax: MCF7, Maximal ER degradation, read-out: Dmax. In a few lines:
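ERα levels assessed by Western blot (50 μg lysate protein, infrared scanner) after 24-hour exposure of MCF-7 cells to varied compound concentrations. Values reported as DC50, the concentration halving ER expression, and Dmax, the maximal ER reduction achieved across tested concentrations.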

Experiment [3] deals with MCF-7 breast cancer cells. The experiment can be described thus: MCF-7 proliferation / cell viability assay. As to conditions: Homo sapiens, MCF7; MCF-7 proliferation with 0.1 nM 17-beta estradiol; read-out: IC50 (anti-proliferation). In a few lines:
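Survival ratio, with vehicle (DMSO) as 100%, was derived from Coulter-counted viable cell numbers. Cells were grown in 5% FBS DMEM and dosed for 5 days across six concentrations between 10^−10 M and 10^−5 M.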

For the molecule `CC/C(=C(\c1ccc(B(O)O)cc1)c1ccc(C2CCN(CCCN3CCN(c4ccc5c(c4)CN(C4CCC(=O)NC4=O)C5=O)CC3)CC2)cc1)c1ccccc1` (stereo not shown) [Compound 49, (Z)-(4-(1-(4-(1-(3-(4-(2-(2,6-dioxopiperidin-3-yl)-1-oxoisoindolin-5-yl)piperazin-1-yl)propyl)piperidin-4-yl)phenyl)-2-phenylbut-1-en-1-yl)phenyl)boronic acid], the values for the IC50 in experiment [1] and in experiment [3] were less than 10 nM and 10 to 50 nM, respectively. Besides, the DC50 in experiment [2] is less than 10 nM. For the same molecule, in experiment [2], the Dmax is greater than 90%.
In the case of `CC/C(=C(/c1ccc(B(O)O)cc1)c1ccc(C2CCN(CCCN3CCN(c4ccc5c(c4)CN(C4CCC(=O)NC4=O)C5=O)CC3)CC2)cc1)c1ccccc1` (stereo not shown) [Compound 50, (E)-(4-(1-(4-(1-(3-(4-(2-(2,6-dioxopiperidin-3-yl)-1-oxoisoindolin-5-yl)piperazin-1-yl)propyl)piperidin-4-yl)phenyl)-2-phenylbut-1-en-1-yl)phenyl)boronic acid], in experiment [1], the IC50 was less than 10 nM. Besides, in experiment [2], the DC50 was less than 10 nM and the Dmax is greater than 90%. In addition, in experiment [3], the IC50 lay within 10 to 50 nM.
As for `CC/C(=C(\c1ccc(B(O)O)cc1)c1ccc(N2CCC(CCCN3CCN(c4ccc5c(c4)C(=O)N(C4CCC(=O)NC4=O)C5=O)CC3)CC2)cc1)c1ccccc1` (stereo not shown) [Compound 51, (Z)-(4-(1-(4-(4-(3-(4-(2-(2,6-dioxopiperidin-3-yl)-1,3-dioxoisoindolin-5-yl)piperazin-1-yl)propyl)piperidin-1-yl)phenyl)-2-phenylbut-1-en-1-yl)phenyl)boronic acid], the IC50 in experiment [1] lay in the range of 10 to 50 nM. Besides, in experiment [2], the half-maximal degradation concentration (DC50) was less than 10 nM and the Dmax is greater than 90%. Further, the IC50 in experiment [3] lay in the range of 10 to 50 nM.
Consider `CC/C(=C(/c1ccc(B(O)O)cc1)c1ccc(N2CCC(CCCN3CCN(c4ccc5c(c4)C(=O)N(C4CCC(=O)NC4=O)C5=O)CC3)CC2)cc1)c1ccccc1` (stereo not shown) [Compound 52, (E)-(4-(1-(4-(4-(3-(4-(2-(2,6-dioxopiperidin-3-yl)-1,3-dioxoisoindolin-5-yl)piperazin-1-yl)propyl)piperidin-1-yl)phenyl)-2-phenylbut-1-en-1-yl)phenyl)boronic acid], for which the IC50 in experiment [1] was 10 to 50 nM. In experiment [2], the DC50 is less than 10 nM and the Dmax is greater than 90%. Besides, the IC50 in experiment [3] lay in the range of 10 to 50 nM.
As to `CC/C(=C(\c1ccc(B(O)O)cc1)c1ccc(N2CCC(CCCN3CCN(c4ccc5c(c4)CN(C4CCC(=O)NC4=O)C5=O)CC3)CC2)cc1)c1ccccc1` (stereo not shown) [Compound 53, (Z)-(4-(1-(4-(4-(3-(4-(2-(2,6-dioxopiperidin-3-yl)-1-oxoisoindolin-5-yl)piperazin-1-yl)propyl)piperidin-1-yl)phenyl)-2-phenylbut-1-en-1-yl)phenyl)boronic acid], the values for the IC50 in experiment [1] and in experiment [3] were less than 10 nM and 10 to 50 nM, respectively. This molecule gave a DC50 in experiment [2] of less than 10 nM. For the same molecule, the greatest degradation seen (Dmax) in experiment [2] is greater than 90%.
For the molecule `CC/C(=C(/c1ccc(B(O)O)cc1)c1ccc(N2CCC(CCCN3CCN(c4ccc5c(c4)CN(C4CCC(=O)NC4=O)C5=O)CC3)CC2)cc1)c1ccccc1` (stereo not shown) [Compound 54], the IC50 in experiment [1] was less than 10 nM; in experiment [3], 10 to 50 nM. Further, the DC50 in experiment [2] was less than 10 nM. Further, the Dmax in experiment [2] is greater than 90%.
For the molecule `CC/C(=C(\c1ccc(B(O)O)cc1)c1ccc(N2CCN(CCCC3CCN(c4ccc5c(c4)C(=O)N(C4CCC(=O)NC4=O)C5=O)CC3)CC2)cc1)c1ccccc1` (stereo not shown) [Compound 55, (Z)-(4-(1-(4-(4-(3-(1-(2-(2,6-dioxopiperidin-3-yl)-1,3-dioxoisoindolin-5-yl)piperidin-4-yl)propyl)piperazin-1-yl)phenyl)-2-phenylbut-1-en-1-yl)phenyl)boronic acid], the IC50 in experiment [1] and in experiment [3] was 10 to 50 nM throughout. The molecule also yielded a DC50 in experiment [2] of less than 10 nM. In addition, the Dmax in experiment [2] was greater than 75%.
For the molecule `CC/C(=C(/c1ccc(B(O)O)cc1)c1ccc(N2CCN(CCCC3CCN(c4ccc5c(c4)C(=O)N(C4CCC(=O)NC4=O)C5=O)CC3)CC2)cc1)c1ccccc1` (stereo not shown) [Compound 56, (E)-(4-(1-(4-(4-(3-(1-(2-(2,6-dioxopiperidin-3-yl)-1,3-dioxoisoindolin-5-yl)piperidin-4-yl)propyl)piperazin-1-yl)phenyl)-2-phenlbut-1-en-1-yl)phenyl)boronic acid], the IC50 in experiment [1] was 10 to 50 nM. In addition, in experiment [2], the DC50 was less than 10 nM and the Dmax is greater than 75%. For the same molecule, the IC50 in experiment [3] lay within 10 to 50 nM.
In the case of `CC/C(=C(\c1ccc(B(O)O)cc1)c1ccc(N2CCN(CCCC3CCN(c4ccc5c(c4)CN(C4CCC(=O)NC4=O)C5=O)CC3)CC2)cc1)c1ccccc1` (stereo not shown) [Compound 57, (Z)-(4-(1-(4-(4-(3-(1-(2-(2,6-dioxopiperidin-3-yl)-1-oxoisoindolin-5-yl)piperidin-4-yl)propyl)piperazin-1-yl)phenyl)-2-phenylbut-1-en-1-yl)phenyl)boronic acid], the IC50 in experiment [1] is 10 to 50 nM. Further, in experiment [2], the DC50 was less than 10 nM and the Dmax is greater than 90%. Besides, in experiment [3], the IC50 fell in the range of 10 to 50 nM.
Regarding `CC/C(=C(/c1ccc(B(O)O)cc1)c1ccc(N2CCN(CCCC3CCN(c4ccc5c(c4)CN(C4CCC(=O)NC4=O)C5=O)CC3)CC2)cc1)c1ccccc1` (stereo not shown) [Compound 58], the IC50 in experiment [1] lay in the range of 10 to 50 nM. In experiment [2], the DC50 was less than 10 nM and the Dmax is greater than 90%. Further, the IC50 in experiment [3] was 10 to 50 nM.
As for `CC/C(=C(\c1ccc(B(O)O)cc1)c1ccc(N2CCN(CCN3CCN(c4ccc5c(c4)C(=O)N(C4CCC(=O)NC4=O)C5=O)CC3)CC2)cc1)c1ccccc1` (stereo not shown) [Compound 59, (Z)-(4-(1-(4-(4-(2-(4-(2-(2,6-dioxopiperidin-3-yl)-1,3-dioxoisoindolin-5-yl)piperazin-1-yl)ethyl)piperazin-1-yl)phenyl)-2-phenylbut-1-en-1-yl)phenyl)boronic acid], the IC50 in experiment [1] is 10 to 50 nM. In experiment [2], the DC50 lay within 10 to 50 nM and the Dmax is greater than 90%. Moreover, the IC50 in experiment [3] was in the range of 10 to 50 nM.
Consider `CC/C(=C(/c1ccc(B(O)O)cc1)c1ccc(N2CCN(CCN3CCN(c4ccc5c(c4)C(=O)N(C4CCC(=O)NC4=O)C5=O)CC3)CC2)cc1)c1ccccc1` (stereo not shown) [Compound 60, (E)-(4-(1-(4-(4-(2-(4-(2-(2,6-dioxopiperidin-3-yl)-1,3-dioxoisoindolin-5-yl)piperazin-1-yl)ethyl)piperazin-1-yl)phenyl)-2-phenylbut-1-en-1-yl)phenyl)boronic acid], for which the IC50 in experiment [1] and in experiment [3] was 10 to 50 nM each time. In experiment [2], the DC50 lay in the range of 10 to 50 nM. Further, the Dmax in experiment [2] is greater than 90%.
In the case of `CC/C(=C(\c1ccc(B(O)O)cc1)c1ccc(N2CCN(CCN3CCN(c4ccc5c(c4)CN(C4CCC(=O)NC4=O)C5=O)CC3)CC2)cc1)c1ccccc1` (stereo not shown) [Compound 61, (Z)-(4-(1-(4-(4-(2-(4-(2-(2,6-dioxopiperidin-3-yl)-1-oxoisoindolin-5-yl)piperazin-1-yl)ethyl)piperazin-1-yl)phenyl)-2-phenylbut-1-en-1-yl)phenyl)boronic acid], in experiment [1], the IC50 fell in the range of 10 to 50 nM. In experiment [2], the DC50 was less than 10 nM and the Dmax was greater than 90%. In addition, the IC50 in experiment [3] was in the range of 10 to 50 nM.
As for `CC/C(=C(/c1ccc(B(O)O)cc1)c1ccc(N2CCN(CCN3CCN(c4ccc5c(c4)CN(C4CCC(=O)NC4=O)C5=O)CC3)CC2)cc1)c1ccccc1` (stereo not shown) [Compound 62, (E)-(4-(1-(4-(4-(2-(4-(2-(2,6-dioxopiperidin-3-yl)-1-oxoisoindolin-5-yl)piperazin-1-yl)ethyl)piperazin-1-yl)phenyl)-2-phenylbut-1-en-1-yl)phenyl)boronic acid], the IC50 in experiment [1] was in the range of 10 to 50 nM. In addition, in experiment [2], the DC50 was less than 10 nM and the Dmax was greater than 90%. Further, in experiment [3], the IC50 lay in the range of 10 to 50 nM.
As to `CC/C(=C(\c1ccc(B(O)O)cc1)c1ccc(N2CCC(CCN3CCN(c4ccc5c(c4)C(=O)N(C4CCC(=O)NC4=O)C5=O)CC3)CC2)cc1)c1ccccc1` (stereo not shown) [Compound 63, (Z)-(4-(1-(4-(4-(2-(4-(2-(2,6-dioxopiperidin-3-yl)-1,3-dioxoisoindolin-5-yl)piperazin-1-yl)ethyl)piperidin-1-yl)phenyl)-2-phenylbut-1-en-1-yl)phenyl)boronic acid], the IC50 in experiment [1] and in experiment [3] was 10 to 50 nM each time. In addition, the DC50 in experiment [2] was 10 to 50 nM. Moreover, the Dmax in experiment [2] is greater than 90%.
Take `CC/C(=C(/c1ccc(B(O)O)cc1)c1ccc(N2CCC(CCN3CCN(c4ccc5c(c4)C(=O)N(C4CCC(=O)NC4=O)C5=O)CC3)CC2)cc1)c1ccccc1` (stereo not shown) [Compound 64]: the IC50 in experiment [1] and in experiment [3] was 10 to 50 nM each time. The molecule also returned a DC50 in experiment [2] of 10 to 50 nM. Moreover, the Dmax in experiment [2] is greater than 90%.
